From patent US4372949A, “Treatment of cancer with carcinostatic and immunostimulating agent containing lysophospholipid and phospholipid” (Toyama Chemical Co., Ltd., priority 1979, dated 1983) come the findings set out here.

One data set relates to mice. Briefly: Acute toxicity. It counts as in vivo. The settings on record: female, intravenous injection. The text has this:
The results of measurement of acute toxicity on some typical compounds prepared according to this invention are shown in Table 9.
(Test animal: mice, female; intravenous injection)

Data set [1] deals with Lewis lung cancerous cells. Briefly: Inhibitory effect against metastasis of Lewis lung cancer. It counts as in vivo, mice (BDF1 strain). The settings on record: L-lysolecithin 40 mg/kg i.p., 10 days. Here is the method: 1×10^6 Lewis lung cancerous cells were given intravenously to BDF1 strain (female, 13-week old) mice, and after 24 hours, L-lysolecithin (40 mg/kg) was administered intraperitoneally while a mixture of a fat emulsion (20 ml/kg) and L-lysolecithin (40 mg/kg) was administered intravenously, each for a period of 10 days repeatedly, and at the 11th day, the breast of each test mouse was cut open and the dry weight of the lung (mg mean ± S.E.) was measured. The inhibitory effect was judged by the ratio to the control group (T/C).

The next data set deals with L-1210 leukemic cells. Briefly: Pre-administration effect to L-1210 (L-1210 allograft). The format is in vivo, mice (ddN strain). The settings on record: i.p., 7 days pre-administration. As for the experimental part: Each test compound was repeatedly administered (at a dose of 40 mg/kg as calculated in terms of L-lysolecithin) intraperitoneally to ddN strain mice (male, 6-week old) for a period of 7 days, and after one-week no-administration period, 1×10^6 L-1210 leukemic cells were inoculated intraperitoneally and the average number of survival days of the test animal was determined.

The mark [2] stands for this setting: Table 5, 40 mg/kg L-lysolecithin (No. 7: + 20 ml/kg fat emulsion).

Turning to L-lysolecithin, the LD50 in the data set on mice is listed as 122 mg/kg. In data set [1], the “Dry lung weight (mean ± S.E.)” value is on record as 34.3 ± 1.6 mg and the “Increased weight (mean ± S.E.)” value was determined as 4.7 ± 1.6 mg. The T/C in data set [1] (ratio to control group) is on record as 29.0%. Also, the “Average number of survival days” value with L-1210 leukemic cells (Table 4, 40 mg/kg as L-lysolecithin) is greater than 21.0 days. In addition, in the data set on L-1210 leukemic cells (setting [2]), the “Number of survival days (mean ± S.E.)” value was 21.0 days and the “Number of survivor for 21 days/Number of mice tested” value is on record as 6/6.
